Assay results reported in publication PMC6024615, “Effect of Biliary Drainage on the Toxicity and Toxicokinetics of Amanita exitialis in Beagles” (Toxins, 2018).

How the values were obtained:
[1] = Peptide toxins in the urine of beagles with biliary drainage; assay type: in vivo, beagle dogs; settings: for Total (accumulated) amount excreted in urine / percentage of total urine excretion, Total: 0–4 days
Protocol: (§1) The study was approved by National Institute of Occupational Health and Poison Control review board for animal experiments. Twenty-four male beagles (age, 8–10 months; weight, 10 ± 1 kg) were obtained from Beijing Institute of Xieerxin Biology Resource (Beijing, China). They were randomly divided into four groups of six animals each: control, biliary drainage, and 20 and 60 mg/kg with biliary drainage groups. The biliary drainage operation was conducted in all groups barring the control group. The dogs were dressed in homemade underwear, coats, and Elizabeth circles for a week to ensure pre-experimental acclimatization (Figure S8a–c). After determining the baseline values for biochemical indicators, the dogs were fasted for 24 h but received water ad libitum. They were anesthetized by intravenous administration of pentobarbital sodium (3%, 1 mL/kg) during the surgery. A temperature of 38–39 °C was maintained with a warming mat. After skin preservation and sterilization, the abdominal cavity was opened through the central abdomen. The abdomen was explored and blunt dissection of the common bile duct was performed (Figure S8d). The common bile duct and its branches were ligated from the intestinal side. A 7.0-Fr drainage catheter (COOK, Bloomington, IN, USA) was percutaneously inserted into the gallbladder, and a medical drainage bag was connected to the drainage catheter coming out of the abdominal cavity. Each opened layer, including the peritoneum, abdominal wall muscle, and skin, was closed with suture. The operative incision was protected with sterile gauze and a bandage, and the dogs were dressed in homemade underwear, coats, and Elizabeth circles. The drainage bag was placed in the pocket of the coat (Figure S8e). After the anesthetic wore off, the dogs were placed in cages, and food and water were provided ad libitum. The operative incision was sterilized with iodophor twice a day until stitches were removed six days after surgery. The drainage bag was replaced every day. On the eighth day after surgery, the 20 and 60 mg/kg with biliary drainage groups were orally administered a lyophilized powder of Amanita exitialis in starch capsules. In control and bile drainage group, the beagle dogs were fed with empty capsules. Immediately after dosing, the animals were placed in their cages, and food and water were provided ad libitum. Dogs were sacrificed with an overdose of sodium pentobarbital at the end of the experiment. All procedures were performed according to the ethical standards of the National Institutes of Health Guide for Animal Welfare and approved by the Institutional Animal Care and Use Committee (EAWE-2017-005).
(§2) Peptide toxins in blood and urine samples were analyzed as described previously. Bile samples from Days 0–1, Days 1–2, Days 2–3, and Days 3–4 were collected and stored in medical drainage bags and the bile volume was recorded. Plasma and urine samples were stored at 2–8 °C until analysis for peptide toxins.
(§3) UPLC and MS/MS parameters were as described in our previous study. The limit of detection and limit of quantitation of each toxin in the bile were 0.03 mg/kg and 0.5 mg/kg, respectively.

[2] = Peptide toxins in the blood / toxicokinetics in beagles with biliary drainage; assay type: in vivo, beagle dogs; design: Dose normalized AUC (0–∞) / Dose normalized Cmax: unit not given here; settings: for T1/2: UPLC-ESI-MS/MS
Protocol: as §1, §2, §3
Toxicokinetic parameters were described in our previous study. Measurement data are reported as mean ± standard deviation values and enumeration data are reported as percentage (%). […] SPSS 22.0 (IBM Corporation, Armonk, NY, USA, 2015) was used for statistical analysis. The criterion for statistical significance was p ≤ 0.05. Except for the biliary drainage operation, the animals and methods in our present study are in accordance with our previously published study. Thus, by directly comparing the data from this study with those from our published studies on Amanita exitialis-exposed beagles without biliary drainage, we can evaluate the impact of biliary drainage on the toxicity and toxicokinetics of Amanita exitialis in beagles.

[3] = 20 mg/kg with biliary drainage group
[4] = 60 mg/kg with biliary drainage group
[5] = 1–2 days, 20 mg/kg with biliary drainage group
[6] = 1–2 days, 60 mg/kg with biliary drainage group
[7] = 2–3 days, 20 mg/kg with biliary drainage group
[8] = 2–3 days, 60 mg/kg with biliary drainage group
[9] = 3-4d, 20 mg/kg with biliary drainage group
[10] = 3-4d, 60 mg/kg with biliary drainage group
[11] = 3–4 days, 20 mg/kg with biliary drainage group
[12] = 3–4 days, 60 mg/kg with biliary drainage group
[13] = 20 mg/kg Amanita exitialis oral, biliary drainage, plasma, mean ± SD
[14] = 60 mg/kg Amanita exitialis oral, biliary drainage, plasma, mean ± SD

CC[C@H](C)[C@@H]1NC(=O)CNC(=O)[C@@H]2Cc3c([nH]c4cc(O)ccc34)[S@+]([O-])C[C@H](NC(=O)CNC1=O)C(=O)N[C@@H](CC(N)=O)C(=O)N1C[C@H](O)C[C@H]1C(=O)N[C@@H]([C@@H](C)[C@@H](O)CO)C(=O)N2 [α-amanitin]
detection rate of peptide toxins in urine ([1]; 0-1 d, 60 mg/kg with biliary drainage group): 100% | daily amount excreted in urine ([1]; 0–1 days, 20 mg/kg with biliary drainage group): 0.0147 mg | percentage of total urine excretion excreted daily ([1]; 0–1 days, 20 mg/kg with biliary drainage group, 20 mg/kg): more than 90% | percentage of total urine excretion excreted daily ([1]; 0–1 days, 20 mg/kg with biliary drainage group, listed as α-Amanitin, 20 mg/kg): 96.3% | daily amount excreted in urine ([1]; 0–1 days, 60 mg/kg with biliary drainage group): 0.0213 mg | percentage of total urine excretion excreted daily ([1]; 0–1 days, 60 mg/kg with biliary drainage group, 60 mg/kg): more than 90% | percentage of total urine excretion excreted daily ([1]; 0–1 days, 60 mg/kg with biliary drainage group, listed as α-Amanitin, 60 mg/kg): 90.9% | Total (accumulated) amount excreted in urine [1, 3]: 0.0151 mg | percentage of total urine excretion, Total [1, 3]: 100% | Total (accumulated) amount excreted in urine [1, 4]: 0.0222 mg | percentage of total urine excretion, Total [1, 4]: 100% | time within which toxin was detected in urine [1, 3]: two | time within which toxin was detected in urine [1, 4]: three | detection rate of peptide toxins in urine ([1]; 1-2 d, 20 mg/kg with biliary drainage group): 100% | detection rate of peptide toxins in urine ([1]; 1-2 d, 60 mg/kg with biliary drainage group): 100% | daily amount excreted in urine [1, 5]: 0.0004 mg | percentage of total urine excretion excreted daily [1, 5]: 3.7% | daily amount excreted in urine [1, 6]: 0.0007 mg | percentage of total urine excretion excreted daily [1, 6]: 8.9% | detection rate of peptide toxins in urine ([1]; 2-3 d, 20 mg/kg with biliary drainage group): 0% | toxin content in urine ([1]; 2-3d, 20 mg/kg with biliary drainage group, mean ± SD): 0 µg/L | detection rate of peptide toxins in urine ([1]; 2-3 d, 60 mg/kg with biliary drainage group): 50% | daily amount excreted in urine [1, 7]: 0(0%) mg | percentage of total urine excretion excreted daily [1, 7]: 0(0%) | daily amount excreted in urine [1, 8]: 0.0001 mg | percentage of total urine excretion excreted daily [1, 8]: 0.2% | detection rate of peptide toxins in urine [1, 9]: 0% | toxin content in urine [1, 9]: 0 µg/L | detection rate of peptide toxins in urine [1, 10]: 0% | toxin content in urine [1, 10]: 0 µg/L | daily amount excreted in urine [1, 11]: 0(0%) mg | percentage of total urine excretion excreted daily [1, 11]: 0(0%) | daily amount excreted in urine [1, 12]: 0(0%) mg | percentage of total urine excretion excreted daily [1, 12]: 0(0%) | share of total urine excretion in the 0–2-day urine ([1]; beagles with biliary drainage, both dose groups): more than 95% | detection rate of peptide toxins in blood ([2]; 0 h after ingestion, 60 mg/kg with biliary drainage group): 0% | T1/2 [2, 13]: 1.08 ± 0.76 h | AUC (0–∞) [2, 13]: 5.36 ± 3.17 µg·h/L | CL/F [2, 13]: 0.85 ± 0.43 L/h/kg | Cmax [2, 13]: 1.73 ± 0.58 µg/L | Dose normalized AUC (0–∞) [2, 13]: 138.9 ± 82.1 | Dose normalized Cmax [2, 13]: 44 ± 15.1 | MRT (0–∞) [2, 13]: 3.55 ± 0.8 h | Tmax [2, 13]: 1.38 ± 0.48 h | Vz/F [2, 13]: 1.07 ± 0.31 L/kg | T1/2 [2, 14]: 1.2 ± 0.58 h | AUC (0–∞) [2, 14]: 31.99 ± 9.65 ^a,* µg/L × h | CL/F [2, 14]: 0.36 ± 0.11 L/h/kg | Cmax [2, 14]: 12.25 ± 3.54 ^a,* µg/L | Dose normalized AUC (0–∞) [2, 14]: 238.2 ± 83.9 | Dose normalized Cmax [2, 14]: 86.1 ± 30.8 | MRT (0–∞) [2, 14]: 2.87 ± 0.43 h | Tmax [2, 14]: 1.13 ± 0.25 h | detection rate of peptide toxins in blood ([2]; 0.25 h after ingestion, 20 mg/kg with biliary drainage group): 0% | detection rate of peptide toxins in blood ([2]; 0.25 h after ingestion, 60 mg/kg with biliary drainage group): 0% | detection rate of peptide toxins in blood ([2]; 0.5 h after ingestion, 20 mg/kg with biliary drainage group): 33% | detection rate of peptide toxins in blood ([2]; 0.5 h after ingestion, 60 mg/kg with biliary drainage group): 33% | detection rate of peptide toxins in blood ([2]; 1 h after ingestion, 20 mg/kg with biliary drainage group): 100% | detection rate of peptide toxins in blood ([2]; 1 h after ingestion, 60 mg/kg with biliary drainage group): 100% | detection rate of peptide toxins in blood ([2]; 1.5 h after ingestion, 20 mg/kg with biliary drainage group): 100% | detection rate of peptide toxins in blood ([2]; 1.5 h after ingestion, 60 mg/kg with biliary drainage group): 100% | detection rate of peptide toxins in blood ([2]; 2 h after ingestion, 20 mg/kg with biliary drainage group): 100% | detection rate of peptide toxins in blood ([2]; 2 h after ingestion, 60 mg/kg with biliary drainage group): 100% | detection rate of peptide toxins in blood ([2]; 3 h after ingestion, 20 mg/kg with biliary drainage group): 100% | detection rate of peptide toxins in blood ([2]; 3 h after ingestion, 60 mg/kg with biliary drainage group): 100% | detection rate of peptide toxins in blood ([2]; 4 h after ingestion, 20 mg/kg with biliary drainage group): 100% | detection rate of peptide toxins in blood ([2]; 4 h after ingestion, 60 mg/kg with biliary drainage group): 100% | detection rate of peptide toxins in blood ([2]; 5 h after ingestion, 20 mg/kg with biliary drainage group): 100% | detection rate of peptide toxins in blood ([2]; 5 h after ingestion, 60 mg/kg with biliary drainage group): 100% | detection rate of peptide toxins in blood ([2]; 6 h after ingestion, 20 mg/kg with biliary drainage group): 100% | detection rate of peptide toxins in blood ([2]; 6 h after ingestion, 60 mg/kg with biliary drainage group): 100% | detection rate of peptide toxins in blood ([2]; 8 h after ingestion, 20 mg/kg with biliary drainage group): 50% | detection rate of peptide toxins in blood ([2]; 8 h after ingestion, 60 mg/kg with biliary drainage group): 50% | detection rate of peptide toxins in blood ([2]; 10 h after ingestion, 20 mg/kg with biliary drainage group): 50% | detection rate of peptide toxins in blood ([2]; 10 h after ingestion, 60 mg/kg with biliary drainage group): 50% | detection rate of peptide toxins in blood ([2]; 12 h after ingestion, 20 mg/kg with biliary drainage group): 17% | detection rate of peptide toxins in blood ([2]; 12 h after ingestion, 60 mg/kg with biliary drainage group): 33% | detection rate of peptide toxins in blood ([2]; 24 h after ingestion, 20 mg/kg with biliary drainage group): 0% | detection rate of peptide toxins in blood ([2]; 24 h after ingestion, 60 mg/kg with biliary drainage group): 0% | detection rate of peptide toxins in blood ([2]; 36 h after ingestion, 20 mg/kg with biliary drainage group): 0% | detection rate of peptide toxins in blood ([2]; 36 h after ingestion, 60 mg/kg with biliary drainage group): 0% | detection rate of peptide toxins in blood ([2]; 48 h after ingestion, 20 mg/kg with biliary drainage group): 0% | detection rate of peptide toxins in blood ([2]; 48 h after ingestion, 60 mg/kg with biliary drainage group): 0% | time at which toxins were detected in plasma after ingestion ([2]; beagles with biliary drainage, oral Amanita exitialis): 30 min | Vd/F ([2]; male, beagle, dog, 60 mg/kg Amanita exitialis oral, biliary drainage, plasma, mean ± SD, read-out: Vz/F): 0.68 ± 0.48 L/kg
